Tests used:
[1] = system: murine bone marrow-derived macrophages; assay: area under cytotoxicity dose-response curve (AUC (% cytotoxicity x dose, relative)); higher = more cytotoxic; settings: duration: 6 days; dose range: 0.13-80 uM, 8 points
Summary of the method: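 Values are the area under the cytotoxicity dose–response curve, calculated with GraphPad Prism version 10. Primary murine bone marrow-derived macrophages were exposed to final concentrations of 80–0.13 μM for 6 days, and viability was read by CellTiter-Glo luminescence with normalisation to vehicle and positive control wells.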

[2] = system: Mycobacterium tuberculosis CDC1551 (intracellular, in murine BMDM); assay: area under intracellular growth-inhibition dose-response curve (AUC (% inhibition x dose, relative)); higher = more potent; settings: duration: 6 days; dose range: 0.13-80 uM, 8 points
Summary of the method: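 The value is the area under the growth-inhibition dose–response curve, calculated in GraphPad Prism. Primary murine bone marrow-derived macrophages were seeded in 384-well opaque plates and, 24 h later, infected for 1 h with luciferase-expressing M. tuberculosis CDC1551 at multiplicity of infection 1. Cells were then exposed for 6 days to an 8-dose, 2.5-fold series (final 80–0.13 μM). Growth was read with the Bright-Glo luciferin assay and normalised to a reference drug control and to the lowest-concentration wells.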

Row | SMILES | area under cytotoxicity dose-response curve [1] | area under intracellular growth-inhibition dose-response curve [2]
1 | CC1CCc2nc3sc4c(c3c(N)c2C1)CCCC4 (stereo not drawn) | 58.3 | 174
2 | O=C(N/N=C/c1cccc2ccccc12)c1ccncc1 | 67.8 | 262
3 | O=C(NN=C1C2CC3CC(C2)CC1C3)c1ccncc1 | 103 | 238
4 | O=C(COc1ccccc1)NC(=S)Nc1ccc2c(c1)Cc1ccccc1-2 | 74 | 190
5 | O=C(Nc1ccc2c(c1)OCCO2)NC12CC3CC(CC(C3)C1)C2 | 22.8 | 136
6 | O=C(COC(=O)Cc1ccc(Cl)cc1)NCc1cccs1 | 18.4 | 37.1
7 | O=C(OCC(=O)c1ccc(Cl)cc1Cl)c1ccccn1 | 10.1 | 205
8 | CCn1cc(C(=O)NCCc2ccccc2)c(=O)c2cc(S(=O)(=O)N3CCCC3)ccc21 | 74.8 | 203
9 | N#Cc1ccc(NCC(=O)N2CCN(S(=O)(=O)c3ccccc3)CC2)cc1 | < 0 | 56.7
10 | Cn1c(COc2ccc(Cl)cc2)nnc1SCC(=O)NC1CC1 | 96 | 24.4
11 | Cc1ccc2nc(C)cc(S)c2c1 | < 0 | 108
12 | Cc1ccc2nc(-c3ccc(NC(=S)NC(=O)C(C)C)cc3)sc2c1 | 32.6 | 174
13 | O=C(OCC(=O)C12CC3CC(CC(C3)C1)C2)c1ccc(CO)cc1 | < 0 | 124
14 | C/C(=N\Nc1nc(C)c(C)s1)c1ccc([N+](=O)[O-])cc1 | < 0 | 222
15 | O=C(N/N=C/c1c(F)c(F)c(F)c(F)c1F)c1cccc(S(=O)(=O)N2CCOCC2)c1 | 128 | 45.4
16 | CC1CCN(C(=O)c2ccc(CNc3c(N4CCCC4)c(=O)c3=O)cc2)CC1 | 78.3 | 166
17 | CC(=O)Nc1ccc(S(=O)(=O)Nc2ccc(N3CCCCC3)cc2)cc1 | 16.6 | 27.8
18 | O=C1/C(=C/c2cccs2)CCC1C1CCCC1 (stereo not drawn) | < 0 | 132
19 | C/C(CC(=O)Nc1cccc(C(F)(F)F)c1)=N\NC(=O)c1ccncc1 | < 0 | 212
20 | O=C(CC1CCCCC1)NCC1CCCO1 (stereo not drawn) | 25.1 | 165
21 | O=C1CN(C(=O)COC(=O)c2ccc(Br)o2)c2ccccc2N1 | 23.5 | 58.2
22 | O=[N+]([O-])c1ccc(N2CCCCC2)s1 | 14.5 | 165

Row | SMILES | area under cytotoxicity dose-response curve [1] | area under intracellular growth-inhibition dose-response curve [2]
23 | CN(C)[C@@H]1C(=O)C(C(N)=O)=C(O)[C@@]2(O)C(O)=C3C(=O)c4c(O)cccc4[C@@](C)(O)C3C[C@@H]12.Cl (stereo partly drawn) | 65.9 | 232
24 | O=C(COC(=O)c1ccc([N+](=O)[O-])o1)Nc1ccc(F)cc1 | < 0 | 144
25 | O=C(COc1ccccc1)N1CCN(c2ccccc2)CC1 | 10 | 122
26 | Cc1nnc(NS(=O)(=O)c2ccc(N)cc2)s1 | 29.3 | 121
27 | Cc1cc(OCC(=O)N2CCCC2)ccc1Cl | 55.1 | 220
28 | O=C(NNC(=O)C1CCCC1)c1cc([N+](=O)[O-])cc([N+](=O)[O-])c1 | 12.3 | 109
29 | Cc1nnc(SCC2=C(C(=O)O)N3C(=O)C(NC(=O)Cn4nc(C(F)F)c(Cl)c4C)C3SC2)s1 (stereo not drawn) | < 0 | 193
30 | Cc1ccc(S(=O)(=O)N2CCOCC2)cc1C(=O)OCC(=O)NC1CC1 | 7.09 | 97.3
31 | CC(/C=C/c1ccccc1)=N\NC(N)=S | 31.1 | 266
32 | Cc1nnc(SCC2=C(C(=O)O)N3C(=O)C(NC(=O)COc4ccccc4)C3SC2)s1 (stereo not drawn) | 73.9 | 151
33 | Cc1ccc2c(c1)sc(-c1ccc(N(C)C)cc1)[n+]2C.[I-] | 125 | < 0
34 | O=C(NCC1CCCCC1)c1ccc(Br)o1 | < 0 | 274
35 | CNC(=S)N/C=N/OCc1c(Cl)cccc1Cl | 86.9 | 83.8
36 | COc1cc(OC)c2c(OC)cccc2n1 | 101 | 92.3
37 | CNc1nc(SCc2ccc(C)cc2)nc2c1CCCC2 | 19.6 | 274
38 | Cn1ccc(=Nc2ccc(NC(=O)c3ccc(/N=c4\ccn(C)c5ccc([N+](=O)[O-])cc45)cc3)cc2)cc1 | 108 | 260
39 | Cc1nc(N)nc(N)c1/C=C/C(C)(C)c1ccc(Cl)cc1.Cl | 5.71 | 230
40 | COc1ccc(/C=N/NC(=O)c2ccncc2)c(OC)c1 | 28 | 227
41 | Cc1cc(C(C)(C)C)cc(C)c1C[n+]1c2n(c3ccc(C(F)(F)F)cc31)CCCCC2.[Cl-] | 120 | 138
42 | CCCn1nnc(NC(=S)NC(=O)c2ccccc2OC)n1 | 25.9 | 64.2
43 | O=C(/C=C/c1ccc(S(=O)(=O)N2CCOCC2)cc1)NCCc1ccc(C(F)(F)F)cc1 | 42 | 102
44 | COc1cccc2c1nc(C)c1cc(C)oc12 | < 0 | 121

Row | SMILES | area under cytotoxicity dose-response curve [1] | area under intracellular growth-inhibition dose-response curve [2]
45 | CC1(C)CC(=O)C=C(Nc2ccc(C(=O)O)c(O)c2)C1 | < 0 | 195
46 | Cc1c(Cl)sn(-c2ccc(Cl)cc2)c1=O | 60.1 | 130
47 | COc1ccc(/C=N/Nc2cc(C)nc3ccc(OC)cc23)c(OC)c1 | 42.9 | 151
48 | CCC(=O)NC(=S)Nc1ccc(NC(=O)COc2ccccc2)cc1 | 69.1 | 201
49 | O=C(Nc1ccc(Br)cc1)NC1CCCCCCC1 | 26.1 | 263
50 | COc1cccc(NC(=O)NC2CCCCCCC2)c1 | 103 | 162
51 | CC1CCCN(C(=O)c2ccc(CNc3c(N4CCCCC4)c(=O)c3=O)cc2)C1 (stereo not drawn) | 23 | 271
52 | CC1CCc2c(N3CCC(O)CC3)c(F)cc3c(=O)c(C(=O)O)cn1c23 (stereo not drawn) | 67 | 162
53 | O=C(NNC(=S)Nc1ccc(C(=O)O)c(O)c1)c1ccncc1 | 30.7 | 170
54 | COc1ccc(CCNc2cc(-c3ccccc3)nc3ncnn23)cc1 | < 0 | 218
55 | CC1CCC(NC(=O)c2ccc3c(c2)OCO3)CC1 (stereo not drawn) | < 0 | 218
56 | O=C(COc1ccccc1)N/N=C/c1ccc([N+](=O)[O-])o1 | 14.3 | 209
57 | Cc1ccc(NC(=O)NC2CCCCCCC2)cc1C | 89 | 230
58 | NC(=S)N/N=C1\CCOc2ccc(F)cc21 | < 0 | 232
59 | O=S1(=O)C=C(Sc2nc3ccccc3s2)c2ccccc21 | 179 | < 0
60 | Cc1ccc(C(=O)OCC(=O)Nc2ccccc2)cc1S(=O)(=O)N1CCCCC1 | < 0 | 94.3
61 | Cl.c1ccc(CN2CCC3(CCCc4ccccc43)CC2)cc1 | 45.5 | 160
62 | O=C(NCc1ccco1)c1cc([N+](=O)[O-])cc([N+](=O)[O-])c1 | 29.1 | 160
63 | Clc1ccc2nnc(Cl)n2n1 | 54 | 79.4
64 | Nc1ccc(S(=O)(=O)Nc2cnc3ccccc3n2)cc1 | < 0 | 156

Reference: the supplement of paper PMC11997997
